Reference: US20240246937A1 (MERCK SHARP & DOHME LLC, priority 2021, published 2024)

The molecules below were run against recombinant IL4I1 (Homo sapiens (Human), UniProt Q96RQ9) (assay: IL4I1 Enzymatic Assay (Amplex Red/HRP coupled fluorescence detection of H2O2)). Conditions: 240 min; recombinant IL4I1, four-hour pre-incubation with compound.
Type: biochemical
Summary of the method: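 Ten-point, 1:3 compound titrations were fitted by four-parameter sigmoidal regression to give EC50. Resorufin fluorescence (544/590 nm) from Amplex Red/HRP-coupled H2O2 detection was read 120 min after adding 1 mM each aromatic amino acid to 1 nM IL4I1, following a 4 h compound pre-incubation in pH 7.0 Hepes buffer.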

recombinant IL4I1, sequence (Q96RQ9 22-567): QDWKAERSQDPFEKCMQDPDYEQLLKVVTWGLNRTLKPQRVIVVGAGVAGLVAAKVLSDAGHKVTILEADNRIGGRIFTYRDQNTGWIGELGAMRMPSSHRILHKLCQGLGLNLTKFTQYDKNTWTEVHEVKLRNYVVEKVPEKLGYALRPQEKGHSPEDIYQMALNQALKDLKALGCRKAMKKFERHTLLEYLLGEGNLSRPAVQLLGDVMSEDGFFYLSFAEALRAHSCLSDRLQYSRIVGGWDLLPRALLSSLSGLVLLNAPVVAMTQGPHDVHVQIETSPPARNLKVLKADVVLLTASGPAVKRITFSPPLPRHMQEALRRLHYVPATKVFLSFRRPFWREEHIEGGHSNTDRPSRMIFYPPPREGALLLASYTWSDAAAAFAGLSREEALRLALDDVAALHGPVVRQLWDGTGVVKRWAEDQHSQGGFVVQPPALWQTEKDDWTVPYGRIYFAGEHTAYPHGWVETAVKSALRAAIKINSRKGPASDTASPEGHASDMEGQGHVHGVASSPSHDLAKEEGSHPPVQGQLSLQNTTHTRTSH

Q: With `N#CC1(n2ccn(Cc3ccc(-n4cccn4)nc3)c(=O)c2=O)CC1` [Example 389, 1-(4-((6-(1H-pyrazol-1-yl)pyridin-3-yl)methyl)-2,3-dioxo-3,4-dihydropyrazin-1(2H)-yl)cyclopropane-1-carbonitrile] as the molecule, how does the EC50 read?
A: 369 nM

Q: Which EC50 does the source give for `N#CC1(n2ccn(Cc3ccc(-n4ccnn4)nc3)c(=O)c2=O)CC1` [Example 390, 1-(4-((6-(1H-1,2,3-triazol-1-yl)pyridin-3-yl)methyl)-2,3-dioxo-3,4-dihydropyrazin-1(2H)-yl)cyclopropane-1-carbonitrile] here?
A: 343 nM

Q: With `N#CC1(n2ccn(Cc3ccc(-n4nccn4)nc3)c(=O)c2=O)CC1` [Example 391, 1-(4-((6-(2H-1,2,3-triazol-2-yl)pyridin-3-yl)methyl)-2,3-dioxo-3,4-dihydropyrazin-1(2H)-yl)cyclopropane-1-carbonitrile] as the molecule, how does the EC50 read?
A: 170 nM

Q: How did the EC50 turn out when `O=C1C(=O)N(C2CCCC2)CCN1Cc1ccc(N2CCC(F)(F)C2)nc1` [Example 392, 1-cyclopentyl-4-((6-(3,3-difluoropyrrolidin-1-yl)pyridin-3-yl)methyl)piperazine-2,3-dione] was run?
A: 31 nM

Q: Which EC50 does the source give for `O=C1C(=O)N(C2CCCC2)CCN1Cc1ccc(N2CCC(F)C2)nc1` (stereo not shown) [Example 393, 1-cyclopentyl-4-((6-(3-fluoropyrrolidin-1-yl)pyridin-3-yl)methyl)piperazine-2,3-dione] here?
A: 33 nM

Q: Which EC50 does the source give for `O=C1C(=O)N(C2CCC2)CCN1Cc1ccc(-c2cnco2)nn1` [Example 394, 1-cyclobutyl-4-((6-(oxazol-5-yl)pyridazin-3-yl)methyl)piperazine-2,3-dione] here?
A: 31 nM

Q: `O=C1C(=O)N(C2CCC2)CCN1Cc1ccc(-c2cncs2)nn1` [Example 395, 1-cyclobutyl-4-((6-(thiazol-5-yl)pyridazin-3-yl)methyl)piperazine-2,3-dione] was tested. Which EC50 did it give?
A: 8 nM

Q: For `O=c1c(=O)n(C2CCC2)ccn1Cc1nnc(-c2ccccc2)s1` [Example 396, 1-cyclobutyl-4-((5-phenyl-1,3,4-thiadiazol-2-yl)methyl)-1,4-dihydropyrazine-2,3-dione], which EC50 is on record?
A: 5 nM

Q: With `O=c1c(=O)n(C2CCC2)ccn1Cc1ccc(-n2nccn2)cn1` [Example 397, 1-((5-(2H-1,2,3-triazol-2-yl)pyridin-2-yl)methyl)-4-cyclobutyl-1,4-dihydropyrazine-2,3-dione] as the molecule, how does the EC50 read?
A: 11 nM

Q: For `O=C1C(=O)N(C2CCC2)CCN1Cc1ccc(-n2nccn2)nn1` [Example 398, 1-((6-(2H-1,2,3-triazol-2-yl)pyridazin-3-yl)methyl)-4-cyclobutylpiperazine-2,3-dione], which EC50 is on record?
A: 22 nM

Q: How did the EC50 turn out when `O=C1C(=O)N(C2CCC2)CCN1Cc1ccc(-n2nccn2)cc1` [Example 399, 1-(4-(2H-1,2,3-triazol-2-yl)benzyl)-4-cyclobutylpiperazine-2,3-dione] was run?
A: 19 nM

Q: Which EC50 does the source give for `O=C1C(=O)N(C2CCC2)CCN1Cc1ncc(-n2nccn2)cc1F` [Example 400, 1-cyclobutyl-4-((3-fluoro-5-(2H-1,2,3-triazol-2-yl)pyridin-2-yl)methyl)piperazine-2,3-dione] here?
A: 25 nM

Q: For `O=C1C(=O)N(C23CC(C2)C3)CCN1Cc1ccc(-n2nccn2)nn1` [Example 401, 1-((6-(2H-1,2,3-triazol-2-yl)pyridazin-3-yl)methyl)-4-(bicyclo[1.1.1]pentan-1-yl)piperazine-2,3-dione], which EC50 is on record?
A: 48 nM

Q: `O=C1C(=O)N(C23CC(C2)C3)CCN1Cc1ccc(-n2ccnn2)nn1` [Example 402, 1-((6-(1H-1,2,3-triazol-1-yl)pyridazin-3-yl)methyl)-4-(bicyclo[1.1.1]pentan-1-yl)piperazine-2,3-dione] was tested. Which EC50 did it give?
A: 36 nM

Q: With `O=c1c(=O)n(C23CC(C2)C3)ccn1Cc1ccc(-n2nccn2)nn1` [Example 403, 1-((6-(2H-1,2,3-triazol-2-yl)pyridazin-3-yl)methyl)-4-(bicyclo[1.1.1]pentan-1-yl)-1,4-dihydropyrazine-2,3-dione] as the molecule, how does the EC50 read?
A: 17 nM

Q: Which EC50 does the source give for `O=c1c(=O)n(C23CC(C2)C3)ccn1Cc1ccc(-n2ccnn2)nn1` [Example 404, 1-((6-(1H-1,2,3-triazol-1-yl)pyridazin-3-yl)methyl)-4-(bicyclo[1.1.1]pentan-1-yl)-1,4-dihydropyrazine-2,3-dione] here?
A: 10 nM
